Results taken from patent publication US20190046536A1, “Combination Therapy” (Eli Lilly and Company, priority 2016, published 2019).

Assay: Stability of the crystal form
Type: physicochemical
Details: room temperature and relative humidity greater than about 15%

## COc1cnc(C(=O)Nc2ccc(F)c([C@]34CN(c5ncc(F)cn5)C[C@H]3CSC(N)=N4)c2)cn1 [Example 2, N-[3-[(4aR,7aS)-2-Amino-6-(5-fluoropyrimidin-2-yl)-4,4a, 5,7-tetrahydropyrrolo[3,4-d][1,3]thiazin-7a-yl]-4-fluoro-phenyl]-5-methoxy-pyrazine-2-carboxamide]
  crystal form stability: stable crystal form
